Assay results published in the NIST ThermoML archive (doi:10.1016/j.jct.2017.05.001).

Assay: wn = mass fraction of the nth substance listed
Conditions: Liquid; for mass density: Vibrating tube method; for viscosity: Falling or rolling sphere viscometry

OCCN(CCO)CCO [triethanolamine] + O
Conditions | mass density, w1 = 0.0992 [kg/m3] | mass density, w1 = 0.2 [kg/m3] | mass density, w1 = 0.2991 [kg/m3] | mass density, w1 = 0.4 [kg/m3] | viscosity, w1 = 0.0992 [mPa·s] | viscosity, w1 = 0.2 [mPa·s] | viscosity, w1 = 0.2991 [mPa·s] | viscosity, w1 = 0.4 [mPa·s]
353.15 K, 60000 kPa | – | – | 1037.6 | 1053.3 | – | – | – | –
353.15 K, 70000 kPa | 1014 | 1027.4 | 1041.2 | 1056.9 | – | – | – | –
353.15 K, 80000 kPa | 1017.6 | 1031.1 | 1044.8 | 1060.4 | 0.4813 | 0.6313 | 0.8785 | 1.266
353.15 K, 90000 kPa | 1021.2 | 1034.5 | 1048.3 | 1063.8 | – | – | – | –
353.15 K, 100000 kPa | 1024.8 | 1038.1 | 1051.8 | 1067.2 | 0.4891 | 0.6459 | 0.9019 | 1.306
353.15 K, 110000 kPa | 1028.4 | 1041.5 | 1055.2 | 1070.5 | – | – | – | –
353.15 K, 120000 kPa | 1031.8 | 1044.9 | 1058.5 | 1073.9 | – | – | – | –
353.15 K, 130000 kPa | 1035.2 | 1048.2 | 1061.8 | 1077.1 | – | – | – | –
353.15 K, 140000 kPa | 1038.4 | 1051.5 | 1065 | 1080.1 | – | – | – | –
373.15 K, 100 kPa | 971.7 | 985.1 | 999.2 | 1014.6 | – | – | – | –
373.15 K, 500 kPa | 971.9 | 985.3 | 999.3 | 1014.8 | – | – | – | –
373.15 K, 1000 kPa | 972.2 | 985.5 | 999.6 | 1015 | – | – | – | –
373.15 K, 2000 kPa | 972.6 | 986.1 | 1000.1 | 1015.5 | – | – | – | –
373.15 K, 5000 kPa | 973.9 | 987.4 | 1001.5 | 1016.8 | 0.3584 | 0.444 | 0.5867 | 0.7909
373.15 K, 10000 kPa | 976.3 | 989.7 | 1003.8 | 1019.1 | 0.356 | 0.4475 | 0.5894 | 0.8001
373.15 K, 15000 kPa | 978.5 | 991.9 | 1006 | 1021.2 | 0.3581 | 0.451 | 0.5951 | 0.809
373.15 K, 20000 kPa | 980.6 | 994 | 1008.2 | 1023.4 | 0.3595 | 0.4534 | 0.5996 | 0.819
373.15 K, 25000 kPa | – | – | – | – | 0.3618 | 0.4562 | 0.6046 | 0.8242
